What was measured:
[1] = Antiproliferative activity against human IGROV1 cells assessed as cell growth at 10^-6 M after 48 hrs by sulforhodamine B assay; format: functional; conditions: IGROV-1, 48 h, read-out: Activity
[2] = Antiproliferative activity against human SF268 cells assessed as cell growth at 10^-4 M after 48 hrs by sulforhodamine B assay; format: functional; conditions: SF-268, 48 h, read-out: Activity
[3] = Antiproliferative activity against human HCT15 cells assessed as growth inhibition after 48 hrs by sulforhodamine B assay; format: functional; conditions: HCT-15, 48 h
SK-MEL-5 = assay: Antiproliferative activity against human SK-MEL-5 cells assessed as cell growth at 10^-7 M after 48 hrs by sulforhodamine B assay; format: functional; conditions: SK-MEL-5, 48 h, read-out: Activity
NCI-H460 = assay: Antiproliferative activity against human NCI-H460 cells assessed as cell growth at 10^-4 M after 48 hrs by sulforhodamine B assay; format: functional; conditions: NCI-H460, 48 h, read-out: Activity
[4] = Antiproliferative activity against human HCC2998 cells assessed as cell growth at 10^-7 M after 48 hrs by sulforhodamine B assay; format: functional; conditions: HCC 2998, 48 h, read-out: Activity
EKVX = assay: Antiproliferative activity against human EKVX cells assessed as cell growth at 10^-4 M after 48 hrs by sulforhodamine B assay; format: functional; conditions: read-out: Activity
[5] = Antiproliferative activity against human DU145 cells assessed as cell growth at 10^-7 M after 48 hrs by sulforhodamine B assay; format: functional; conditions: DU-145, 48 h, read-out: Activity
[6] = Antiproliferative activity against human SW620 cells assessed as cell growth at […] M after 48 hrs by sulforhodamine B assay; format: functional; conditions: SW-620, 48 h, read-out: Activity
[7] = Antiproliferative activity against human UACC257 cells assessed as cell growth at 10^-4 M after 48 hrs by sulforhodamine B assay; format: functional; conditions: UACC-257, 48 h, read-out: Activity
T47D = assay: Antiproliferative activity against human T47D cells assessed as growth inhibition after 48 hrs by sulforhodamine B assay; format: functional; conditions: for CC50: read-out: LC50 (the source's name)
[8] = Antiproliferative activity against human RPMI8226 cells assessed as cell growth at 10^-7 M after 48 hrs by sulforhodamine B assay; format: functional; conditions: RPMI-8226, 48 h, read-out: Activity
[9] = Antiproliferative activity against human Hs 578T cells assessed as growth inhibition after 48 hrs by sulforhodamine B assay; format: functional; conditions: for CC50: read-out: LC50 (the source's name)
SK-MEL-28 [10] = assay: Antiproliferative activity against human SK-MEL-28 cells assessed as cell growth at 10^-8 M after 48 hrs by sulforhodamine B assay; format: functional; conditions: SK-MEL-28, 48 h, read-out: Activity
[11] = Antiproliferative activity against human SNB75 cells assessed as cell growth at 10^-7 M after 48 hrs by sulforhodamine B assay; format: functional; conditions: SNB-75, 48 h, read-out: Activity
[12] = Antiproliferative activity against human UACC62 cells assessed as cell growth at 10^-7 M after 48 hrs by sulforhodamine B assay; format: functional; conditions: UACC-62, 48 h, read-out: Activity
Malme-3M = assay: Antiproliferative activity against human MALME-3M cells assessed as cell growth at 10^-4 M after 48 hrs by sulforhodamine B assay; format: functional; conditions: read-out: Activity
[13] = Antiproliferative activity against human SNB75 cells assessed as cell growth at 10^-6 M after 48 hrs by sulforhodamine B assay; format: functional; conditions: SNB-75, 48 h, read-out: Activity
[14] = Antiproliferative activity against human UACC62 cells assessed as cell growth at 10^-4 M after 48 hrs by sulforhodamine B assay; format: functional; conditions: UACC-62, 48 h, read-out: Activity
[15] = Antiproliferative activity against human RXF393 cells assessed as growth inhibition after 48 hrs by sulforhodamine B assay; format: functional; conditions: RXF 393, 48 h; for CC50: read-out: LC50 (the source's name)
[16] = Antiproliferative activity against human UACC62 cells assessed as cell growth at 10^-8 M after 48 hrs by sulforhodamine B assay; format: functional; conditions: UACC-62, 48 h, read-out: Activity
CCRF-CEM = assay: Antiproliferative activity against human CCRF-CEM cells assessed as cell growth at 10^-8 M after 48 hrs by sulforhodamine B assay; format: functional; conditions: read-out: Activity
[17] = Antiproliferative activity against human TK10 cells assessed as growth inhibition after 48 hrs by sulforhodamine B assay; format: functional; conditions: TK-10, 48 h; for CC50: read-out: LC50 (the source's name)
[18] = biological target: Serine/threonine-protein kinase B-raf (Homo sapiens, UniProt P15056, V600E); assay: Inhibition of BRAF V600E mutant (unknown origin) measured after 40 mins by scintillation counting
SK-MEL-28 [19] = assay: Antiproliferative activity against human SK-MEL-28 cells assessed as cell growth at 10^-6 M after 48 hrs by sulforhodamine B assay; format: functional; conditions: SK-MEL-28, 48 h, read-out: Activity
[20] = Antiproliferative activity against human OVCAR5 cells assessed as cell growth at 10^-8 M after 48 hrs by sulforhodamine B assay; format: functional; conditions: OVCAR-5, 48 h, read-out: Activity
ACHN = assay: Antiproliferative activity against human ACHN cells assessed as growth inhibition after 48 hrs by sulforhodamine B assay; format: functional
NCI-H322M = assay: Antiproliferative activity against human NCI-H322M cells assessed as cell growth at 10^-6 M after 48 hrs by sulforhodamine B assay; format: functional; conditions: read-out: Activity
[21] = Antiproliferative activity against human BT549 cells assessed as growth inhibition after 48 hrs by sulforhodamine B assay; format: functional; conditions: BT-549, 48 h; for CC50: read-out: LC50 (the source's name)
A498 = assay: Antiproliferative activity against human A498 cells assessed as cell growth at 10^-8 M after 48 hrs by sulforhodamine B assay; format: functional; conditions: A498, 48 h, read-out: Activity
U-251 = assay: Antiproliferative activity against human U251 cells assessed as cell growth at 10^-6 M after 48 hrs by sulforhodamine B assay; format: functional; conditions: U-251, 48 h, read-out: Activity
[22] = Antiproliferative activity against human Caki1 cells assessed as cell growth at 10^-4 M after 48 hrs by sulforhodamine B assay; format: functional; conditions: CAKI-1, 48 h, read-out: Activity
KM12 = assay: Antiproliferative activity against human KM12 cells assessed as cell growth at 10^-8 M after 48 hrs by sulforhodamine B assay; format: functional; conditions: KM12, 48 h, read-out: Activity
[23] = Antiproliferative activity against human NCI-ADR-RES cells assessed as growth inhibition after 48 hrs by sulforhodamine B assay; format: functional
[24] = Antiproliferative activity against human TK10 cells assessed as cell growth at 10^-6 M after 48 hrs by sulforhodamine B assay; format: functional; conditions: TK-10, 48 h, read-out: Activity
NCI-H23 = assay: Antiproliferative activity against human NCI-H23 cells assessed as growth inhibition after 48 hrs by sulforhodamine B assay; format: functional; conditions: NCI-H23, 48 h
[25] = Antiproliferative activity against human TK10 cells assessed as cell growth at 10^-8 M after 48 hrs by sulforhodamine B assay; format: functional; conditions: TK-10, 48 h, read-out: Activity

Serine/threonine-protein kinase B-raf, sequence (P15056 2-766 V600E limits assumed): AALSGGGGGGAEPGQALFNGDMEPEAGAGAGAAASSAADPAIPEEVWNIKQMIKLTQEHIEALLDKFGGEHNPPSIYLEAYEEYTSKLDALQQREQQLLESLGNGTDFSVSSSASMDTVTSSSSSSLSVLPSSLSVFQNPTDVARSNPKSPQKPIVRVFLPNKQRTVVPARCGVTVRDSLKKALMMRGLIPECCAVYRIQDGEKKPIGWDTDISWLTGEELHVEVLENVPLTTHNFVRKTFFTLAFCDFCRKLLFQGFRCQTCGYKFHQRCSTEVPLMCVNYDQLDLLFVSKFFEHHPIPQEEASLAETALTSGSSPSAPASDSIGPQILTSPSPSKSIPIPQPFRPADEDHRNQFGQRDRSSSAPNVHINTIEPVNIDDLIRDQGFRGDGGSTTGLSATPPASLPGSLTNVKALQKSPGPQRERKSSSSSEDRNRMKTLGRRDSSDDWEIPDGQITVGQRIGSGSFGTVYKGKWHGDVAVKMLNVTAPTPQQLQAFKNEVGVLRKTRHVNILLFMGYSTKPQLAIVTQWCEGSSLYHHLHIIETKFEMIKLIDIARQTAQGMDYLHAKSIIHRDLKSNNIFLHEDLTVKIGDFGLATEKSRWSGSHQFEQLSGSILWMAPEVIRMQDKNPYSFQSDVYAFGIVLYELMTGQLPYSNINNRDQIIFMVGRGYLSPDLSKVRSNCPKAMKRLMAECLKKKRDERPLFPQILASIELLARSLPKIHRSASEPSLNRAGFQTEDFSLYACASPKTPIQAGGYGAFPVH

Which results are given for CNC(=O)c1cc(Oc2ccc3nc(NC(=O)Nc4ccc(Cl)c(C(F)(F)F)c4)sc3c2)ccn1?
growth at 1 µM [1]: 88%; growth at 100 µM [2]: -5%; GI50 [3]: 1.95 µM; LC50 [3]: > 100 µM; growth at 0.1 µM (SK-MEL-5): 95%; growth at 100 µM (NCI-H460): 10%; growth at 0.1 µM [4]: 108%; growth at 100 µM (EKVX): -32%; growth at 0.1 µM [5]: 109%; growth at 0.01 µM [6]: 100%; growth at 100 µM [7]: 30%; GI50 (T47D): 0.723 µM; TGI (T47D): 3.65 µM; CC50 (T47D): > 100 µM; growth at 0.1 µM [8]: 101%; GI50 [9]: 1.53 µM; TGI [9]: 6.27 µM; CC50 [9]: > 100 µM; growth at 0.01 µM (SK-MEL-28 [10]): 92%; growth at 0.1 µM [11]: 81%; growth at 0.1 µM [12]: 91%; growth at 100 µM (Malme-3M): -48%; growth at 1 µM [13]: 78%; growth at 100 µM [14]: 26%; GI50 [15]: 1.93 µM; TGI [15]: 4.57 µM; CC50 [15]: 13.9 µM; growth at 0.01 µM [16]: 95%; growth at 0.01 µM (CCRF-CEM): 105%; GI50 [17]: 2.29 µM; TGI [17]: 4.62 µM; CC50 [17]: 9.32 µM; IC50 [18]: 0.131 µM; growth at 1 µM (SK-MEL-28 [19]): 78%; growth at 0.01 µM [20]: 90%; GI50 (ACHN): 1.85 µM; LC50 (ACHN): 7.82 µM; TGI (ACHN): 3.8 µM; growth at 1 µM (NCI-H322M): 96%; GI50 [21]: 2.64 µM; TGI [21]: 9.73 µM; CC50 [21]: > 100 µM; growth at 0.01 µM (A498): 95%; growth at 1 µM (U-251): 89%; growth at 100 µM [22]: 17%; growth at 0.01 µM (KM12): 103%; GI50 [23]: 2.43 µM; LC50 (concentration killing 50% of cells) [23]: > 100 µM; growth at 1 µM [24]: 109%; GI50 (NCI-H23): 2.48 µM; LC50 (NCI-H23): > 100 µM; TGI (NCI-H23): 8.17 µM; growth at 0.01 µM [25]: 104%

Which results are given for CNC(=O)c1cc(Oc2ccc3nc(NC(=O)Nc4ccc(Cl)c(Cl)c4)sc3c2)ccn1?
growth at 1 µM [1]: 98%; growth at 100 µM [2]: -57%; GI50 [3]: 3.71 µM; LC50 [3]: > 100 µM; TGI [3]: > 100 µM; growth at 0.1 µM (SK-MEL-5): 100%; growth at 100 µM (NCI-H460): -17%; growth at 0.1 µM [4]: 101%; growth at 100 µM (EKVX): 23%; growth at 0.1 µM [5]: 101%; growth at 0.01 µM [6]: 102%; growth at 100 µM [7]: 7%; GI50 (T47D): 2.65 µM; TGI (T47D): 6.36 µM; CC50 (T47D): > 100 µM; growth at 0.1 µM [8]: 107%; GI50 [9]: 2.77 µM; TGI [9]: 6.66 µM; CC50 [9]: > 100 µM; growth at 0.01 µM (SK-MEL-28 [10]): 95%; growth at 0.1 µM [11]: 83%; growth at 0.1 µM [12]: 95%; growth at 100 µM (Malme-3M): -75%; growth at 1 µM [13]: 87%; growth at 100 µM [14]: -20%; GI50 [15]: 1.84 µM; TGI [15]: 3.65 µM; CC50 [15]: 7.24 µM; growth at 0.01 µM [16]: 98%; growth at 0.01 µM (CCRF-CEM): 102%; GI50 [17]: 3.46 µM; TGI [17]: 9.26 µM; CC50 [17]: > 100 µM; IC50 [18]: 0.095 µM; growth at 1 µM (SK-MEL-28 [19]): 88%; GI50 (ACHN): 2.1 µM; LC50 (ACHN): > 100 µM; TGI (ACHN): 5.56 µM; growth at 1 µM (NCI-H322M): 84%; GI50 [21]: 4.88 µM; TGI [21]: > 100 µM; CC50 [21]: > 100 µM; growth at 0.01 µM (A498): 101%; growth at 1 µM (U-251): 98%; growth at 100 µM [22]: -17%; growth at 0.01 µM (KM12): 98%; GI50 [23]: 2.3 µM; LC50 (concentration killing 50% of cells) [23]: > 100 µM; TGI [23]: 5.09 µM; growth at 1 µM [24]: 113%; GI50 (NCI-H23): 2.78 µM; LC50 (NCI-H23): > 100 µM; TGI (NCI-H23): > 100 µM; growth at 0.01 µM [25]: 107%

From ChEMBL document CHEMBL3797052 (Eur J Med Chem, 2016)
